Source: article PMC12078400, “Terminal spin labeling of xylotriose strongly affects interactions in the active site of xylanase BcX” (Journal of Biomolecular Nmr, 2025)
Where two headings read alike, the source gives them in different places.

What was measured:
[1] = target: T1, BcX E78Q (Niallia circulans, UniProt P09850, E106Q); details: ref Saberi et al. [2024], cited from earlier work
T1 construct: made in house

[2] = target: T2, BcX E78Q-Y69A (Niallia circulans, UniProt P09850, E106Q/Y97A); test: NMR titration (1H-15N HSQC) of 15N-labeled BcX E78Q-Y69A with ligand; assay type: binding, Bacillus circulans
T2 construct: made in house
Protocol: (§1) Solutions of ^15N-labeled BcX E78Q and BcX E78Q-Y69A (100 µM) were titrated with Dia-X3 and Para-X3. Concentrations of up to 50 mM for Dia-X3 and 8 mM for Para-X3 were used. Samples were prepared separately, and each contained 25 mM sodium acetate buffer (pH 5.8) and 10% D2O for lock. ^1H − ^15N HSQC spectra were obtained on a Bruker HD Avance 850 MHz spectrometer with a cryoprobe, at 20 °C, using 3 mm tubes. In one experiment Para-X3 was reduced in the NMR tube with ascorbic acid to study the effect of reduction in a single sample. The assignment, processing, and analysis of the HSQC spectra were conducted as detailed before (Saberi et al. [2024]).
(§2) Spectra were processed with Topspin (Bruker) and analyzed using CCPN Analysis v.2.4.2 (Vranken et al. [2005]). The weighted average chemical shift perturbations (CSP) for backbone amides (Δδavg) was calculated according to Eq. 1 (modified after Williamson [2013]):1 Δδavg=δH^2+δN/25^2 where δH and δN are the CSPs for ^1H and ^15N nuclei. Titration data were fitted to a 1:1 model Eq. (2), which simplifies to (3) when the ligand concentration [Lt] is much higher than the protein concentration [Pt] (Arai et al. [2012]; Wang et al. [1996]; Williamson [2013]):2 Δδobs=ΔδmaxKD+[Pt]+[Lt]-KD+[Pt]+[Lt]^2-4[Pt][Lt]/2[Pt] 3 Δδobs=[Lt]/KD+[Lt]Δδmax where Δδobs and Δδmax are the observed and maximal change in the chemical shift and KD is the dissociation constant. The error in KD was estimated by manually adjusting KD to higher and lower values and observing the range over which the fit of the CSP data to the model remained within the peak picking error bars of the CSPs.
(§3) The fractional populations of the free and bound states were calculated using the peak height (I) as follows:4 ffree=Ifree/Ifree+Ibound,fbound=Ibound/Ifree+Ibound
(§4) Here, ffree and fbound represent the fractions of the protein in the free and bound states. The uncertainties in the peak heights represent the noise level in the spectra. The dissociation constant KD was determined using:5 KD=ffree.Lfree/fbound
(§5) In this equation, [Lfree] represents the concentration of the free ligand, which was approximated as the total ligand concentration [Ltotal] because the ligand was in large excess relative to the protein. The mean KD value was determined by averaging KD values across the used residues.

[3] = target: T1, BcX E78Q; test: NMR titration (1H-15N HSQC) of 15N-labeled BcX E78Q with ligand; assay type: binding, Bacillus circulans
Protocol: as §1, §2, §3, §4, §5

[4] = target: T2, BcX E78Q-Y69A; details: ref Saberi et al. [2024], cited from earlier work
[5] = secondary binding site, read-out: Dissociation constant KD, SBS
[6] = α-helix region, Para-X3 vs Dia-X3
[7] = α-helix region, global fit of CSP, pH 5.8, 20 °C, read-out: Dissociation constant KD, helix

In the case of `OC1OC[C@@H](O[C@@H]2OC[C@@H](O[C@@H]3OC[C@@H](O[C@@H]4OC[C@@H](O)[C@H](O)[C@H]4O)[C@H](O)[C@H]3O)[C@H](O)[C@H]2O)[C@H](O)[C@H]1O` (some centres unmarked) [X4], the Kd [1, 5] is given as 2.3 mM.
With `CC1(C)CC(O[C@@H]2OC[C@@H](O[C@@H]3OC[C@@H](O[C@@H]4OC[C@@H](O)[C@H](O)[C@H]4O)[C@H](O)[C@H]3O)[C@H](O)[C@H]2O)CC(C)(C)N1[O]` [Para-X3, β-D-xylopyranosyl-(1 → 4)-β-D-xylopyranosyl-(1 → 4)-1-TEMPOL-β-D-xylopyranoside] the “CSPs or PRE for amides in the inner palm region (active site)” value ([2]; 8 mM ligand) was “No significant CSPs or PRE”, the Kd ([2]; active site, fit of CSP curves (fast exchange), NB = no binding, read-out: Dissociation constant KD, active site) was over 8 mM and the “Affinity for helix region, fold higher than for the diamagnetic equivalent (Dia-X3)” value [2, 6] was 1.4 fold. For the same compound, the Kd [2, 7] was 2.4 mM, the Kd ([3]; active site, CSP of amides, up to 8 mM ligand, NB = no binding, read-out: Dissociation constant KD, active site) was over 8 mM and the “Binding in the active site cavity (CSP or intensity loss of amide resonances)” value ([3]; inside active site cleft, up to 8 mM ligand) was “absent or very weak”. The “Affinity for helix region, fold higher than for the diamagnetic equivalent (Dia-X3)” value [3, 6] was 2.7 fold and the Kd [3, 7] was 1.6 mM.
For `OC1OC[C@@H](O[C@@H]2OC[C@@H](O[C@@H]3OC[C@@H](O)[C@H](O)[C@H]3O)[C@H](O)[C@H]2O)[C@H](O)[C@H]1O` (some centres unmarked) [X3, xylotriose], the Kd ([4]; active site, aglycon subsites, 2:1 model, read-out: Dissociation constant KD2, active site) is listed as 24 mM, the Kd ([4]; active site, glycon subsites, 2:1 model, read-out: Dissociation constant KD1, active site) is listed as 15 mM and the Kd [4, 5] is listed as 22 mM. For the same compound, the Kd ([1]; active site, read-out: Dissociation constant KD, active site) was 5.7 mM and the Kd [1, 5] was 23 mM.
